Assay results taken from patent US20090105206A1, “Copper Melphalan And Copper Tegafur As Anti-Tumor Agents” (priority 2004, published 2009).
Several values for one entry are separate records, joined by “and”; a condition that tells them apart may be missing. Identical values can stand only once.

Assays:
[1] = in water: light blue coloring of the solution, foam on shaking
[2] = tested on: murine renal cell carcinoma (RENCA) tumor cells applied orthotopically; assay: Example 4: orthotopic renal cell carcinoma model (RENCA), treatment Day 1-7; primary tumor, metastases, vessel density (anti-CD31); assay type: in vivo, Balb/c mouse; conditions: Melphalan 16.4 μmol/kg (5 mg/kg/d) i.p. Day 1-7, individual animals
Protocol: (§1) The tests were carried out on a murine renal cell carcinoma model (RENCA) of the Balb/c mouse. The tumor cells were applied orthotopically into the left-hand renal capsule of syngenic mice. The effect of the treatment carried out on a primary tumor (in the implanted kidney), metastases (predominantly in the lungs, spleen and intestinal lymph nodes) and vessel density were investigated.
(§2) After anesthesia by means of isoflurane narcosis (O2— flow approx. 2.0 l with 0.5-1.5% isoflurane) a small incision was made in the mouse's left flank. The kidney was prepared and presented free from the peritoneum. A 27 G needle was introduced via the lower kidney pole through to below the renal capsule with visual inspection, and […] in 70 μl aliquots respectively applied once. The occurrence of a visible liquid-filled blister between kidney parenchyma and renal capsule and the discoloration of the kidneys were regarded as criteria for successful application. The kidney was subsequently reset and the incision into the abdominal wall closed by means of fascia stitches and cutaneous stitches with absorbable stitching material. Five test groups with ten animals respectively were formed. Group 1 negative control, group 2 positive control melphalan (Glaxo), group 3 and 4 MOC melphalan 2.5 mg/kg and 5 mg/kg. In the case of group 5 an antiangiogenically effective substance was applied as the positive control. The start of treatment was fixed for day 1 post op. for Cu(melphalan)2. Treatment was carried out daily up to day seven (see treatment model). The test was ended after 19 days since, owing to their size, the control tumors required termination for ethical reasons.
• The implantation day was counted as day 0. • Duration of the test 19 days. • Number of animals at beginning of test 50, no animals died during the op.
(§3) After selecting the animals the tissues to be examined were quickly transferred into liquid nitrogen and then frozen at −80° C. 5-10 μm thick sections were prepared from the tissue parts. The preparations were immunohistochemically dyed with an anti-CD31 antibody (Pecam-1) and the number of vessels in the control and treatment groups counted. Two sections of each tumor with three areas respectively were used for counting the vessels.

OVCAR-3/P19 tumor cells = assay: Example 6: NOD/SCID mice s.c. injected with OVCAR-3 tumor cells; assay type: in vivo, female NOD/SCID mice; design: Vol (tumor volume) Day 20 / Vol (tumor volume) Day 30 / Vol (tumor volume) Day 37: unit: cm^3
Protocol: 2×10^6 OVCAR-3/P19 tumor cells were s.c. injected into female NOD/SCID mice. The mice were treated as follows.
The treatment began with a mean tumor volume of 80 mm^3.
To level possible differences in tumor volume at the start of treatment in the individual groups and to make evident differences owing to the low absolute volumes in the treatment groups, the relative tumor volumes (RTV) have been analyzed. The relative tumor volume results from the ratio of the volume on day x and the tumor volume at the start of treatment in the same test animal. […] The tumor growth was stopped in group 2 after just 7 days. After 3 days of constant tumor volume a tumor regression began from day 30 (10th day of treatment) in the test animals treated with copper-melphalan.

[3] = tested on: murine renal cell carcinoma (RENCA) tumor cells applied orthotopically; assay: Example 5: orthotopic RENCA model, late treatment from Day 10; assay type: in vivo, Balb/c mouse
Protocol: as §1, §2, §3
The study report matches that of Example 4, differing only in terms of treatment intervals and dose groups. Four test groups with ten animals respectively were formed. Group 1 negative control, group 2 positive control melphalan (Glaxo), groups 3 and 4 Cu(melphalan)2 5 mg/kg and 7.5 mg/kg. The start of treatment was fixed for day 10 post op. for all groups. The intention was for daily treatment from day 10 until day 17 (see treatment model). Owing to toxicities the treatment period was reduced to day 10-14. After 18 days the test was ended since, owing to their size, the control tumors required termination for ethical reasons.
• The implantation day was counted as day 0. • Duration of the test 18 days. • Number of animals at beginning of test 40; no animals died during the op.

[4] = Gr. 2, 5 mg/kg melphalan i.p., individual animals
[5] = Gr. 2, 5 mg/kg melphalan i.p., n = 8
[6] = Gr. 2, 5 mg/kg melphalan i.p., n = 8, baseline
[7] = Melphalan 16.4 μmol/kg (5 mg/kg/d) i.p. Day 10-14, day 18, individual animals

Compound: O=c1[n-]c(=O)n(C2CCCO2)cc1F.O=c1[n-]c(=O)n(C2CCCO2)cc1F.[Cu+2] (centres unmarked) [Cu(tegafur)2]
- solubility behavior [1]: substantially matched that of a copper(II) salt

Compound: N[C@@H](Cc1ccc(N(CCCl)CCCl)cc1)C(=O)O [Melphalan, 4-[bis-(2-chloroethyl)-amino]-L-phenylalanine]
- Kidney weight ([2]; day 19): 1.70 gr and 0.38 gr and 0.44 gr and 0.13 gr and 1.02 gr and 1.23 gr and 0.12 gr and 0.34 gr and 0.40 gr and 0.65 gr
- Lung weight ([2]; day 19): 0.12 gr (2×) and 0.20 gr and 0.13 gr and 0.76 gr and 0.10 gr and 0.25 gr and 0.48 gr and 0.22 gr and 0.14 gr
- Number of intestinal lymph node metastases ([2]; day 19): 0 (6×) and 9 and 2 and 8 and 5
- Number of lung metastases ([2]; day 19): 7 and 273 and 1 and >750 (2×) and 28 (2×) and 5 and 640 and 328
- Kidney volume ([2]; test ended day 19): 2.69 cm^3 and 0.58 cm^3 and 1.3 cm^3 and 0.28 cm^3 and 1.76 cm^3 and 2.00 cm^3 and 0.37 cm^3 and 0.77 cm^3 and 1.26 cm^3 and 1.60 cm^3
- Vol (tumor volume) Day 20 (OVCAR-3/P19 tumor cells; Gr. 2, 5 mg/kg melphalan i.p. days 21-37 every 2nd day, Day 20 = start of treatment (baseline), individual animals): 0.04 (2×) and 0.03 and 0.10 (2×) and 0.20 and 0.05 and 0.12
- RTV (relative tumor volume) Day 20 (OVCAR-3/P19 tumor cells; Gr. 2, 5 mg/kg melphalan i.p., Day 20 = start of treatment (baseline), individual animals): 1.00
- RTV (relative tumor volume) Day 30 (OVCAR-3/P19 tumor cells; [4]): 2.75 and 3.00 and 1.40 and 1.75 and 3.20 and 1.42 and 2.20 and 2.50
- RTV (relative tumor volume) Day 37 (OVCAR-3/P19 tumor cells; [4]): 1.98 and 2.37 and 0.81 and 1.05 and 1.66 and 0.82 and 1.71 and 1.18
- Vol (tumor volume) Day 30 (OVCAR-3/P19 tumor cells; [4]): 0.11 and 0.09 and 0.14 and 0.35 and 0.16 and 0.17 and 0.22 and 0.10
- Vol (tumor volume) Day 37 (OVCAR-3/P19 tumor cells; [4]): 0.08 (3×) and 0.07 and 0.21 and 0.10 and 0.17 and 0.05
- RTV Day 30, mean (OVCAR-3/P19 tumor cells; [5]): 2.28
- RTV Day 30, median (OVCAR-3/P19 tumor cells; [5]): 2.35
- RTV Day 37, mean (OVCAR-3/P19 tumor cells; [5]): 1.45
- RTV Day 37, median (OVCAR-3/P19 tumor cells; [5]): 1.42
- Vol Day 30, mean (OVCAR-3/P19 tumor cells; [5]): 0.17
- Vol Day 30, median (OVCAR-3/P19 tumor cells; [5]): 0.15
- Vol Day 37, mean (OVCAR-3/P19 tumor cells; [5]): 0.11
- Vol Day 37, median (OVCAR-3/P19 tumor cells; [5]): 0.08
- RTV Day 20, mean (OVCAR-3/P19 tumor cells; [6]): 1.00
- RTV Day 20, median (OVCAR-3/P19 tumor cells; [6]): 1.00
- Vol Day 20, mean (OVCAR-3/P19 tumor cells; [6]): 0.09
- Vol Day 20, median (OVCAR-3/P19 tumor cells; [6]): 0.08
- mice with RTV>1 on day 37 (OVCAR-3/P19 tumor cells; Gr. 2, 5 mg/kg melphalan, 6 of 8 mice): 75%
- tumor regression / growth at the end of treatment (OVCAR-3/P19 tumor cells; Gr. 2, 5 mg/kg melphalan, range over test animals): between 20% tumor regression and 98% growth
- Kidney weight [3, 7]: 2.77 gr and 1.38 gr and 0.69 gr and 2.91 gr and 1.90 gr (2×) and 1.63 gr and 2.11 gr and 1.45 gr and 1.13 gr
- Lung weight [3, 7]: 0.14 gr and 0.15 gr and 0.13 gr (2×) and 0.28 gr and 0.11 gr and 0.38 gr and 0.10 gr and 0.31 gr
- Number of intestinal lymph node metastases [3, 7]: 91 and 0 (3×) and 49 and 17 and 22 and 32 and 84
- Number of lung metastases (late treatment day 10-14) [3, 7]: 304 and 614 and 317 and 5 and 750 (3×) and 71 and 500 and 46
- Vessel density, later start of treatment day 10-14 ([3]; Melphalan 16.4 μmol/kg (5 mg/kg/d) i.p. Day 10-14, individual sections): 36 (2×) and 28 and 42 and 41 and 68 and 35 and 47 and 32 and 37 and 64 and 62 and 40 (2×) and 34
- Kidney volume ([3]; Melphalan 16.4 μmol/kg (5 mg/kg/d) i.p. from Day 10 (planned 10-17, reduced to 10-14), test ended day 18, individual animals): 3.94 cm^3 and 2.59 cm^3 and 2.08 cm^3 and 4.25 cm^3 and 2.84 cm^3 and 2.20 cm^3 and 3.91 cm^3 and 3.63 cm^3 and 2.80 cm^3 and 3.23 cm^3
